Here are results for 99 molecules from PubChem BioAssay AID2384 (Southern Research Specialized Biocontainment Screening …, 2010).

Where “and” joins values, the source holds several entries; their conditions need not be identical. Equal values may be shown once.

This experiment concerns S. typhi GFP reporter counter-screen, fluorescence, 4 h. Nature of the experiment: inhibitors in S. typhi counter-screen strain, dose response, counter-screen for PhoP regulon inhibitor project, fluorescence, 4 h (AID 2384). Background: Counterscreens check selectivity or assay interference.
Usually IC50 stands for the concentration needed to halve the response being measured. For `Nc1c2ccccc2nc2ccccc12`, the IC50 is 39.5 µM. With `O=C(CNC(=O)c1ccccc1)N/N=C/c1ccc([N+](=O)[O-])s1` the figure was 28.7 µM; with `OC(CNCCc1ccc(Cl)cc1Cl)COc1ccccc1` (centres undefined), 37.3 µM. As for `O=C(NCCCN1CCOCC1)c1sc2cc(Cl)ccc2c1Cl`, the IC50 is 81.7 µM. Regarding `C#CCOCCOCCOCCNc1nc(N2CCN(C(=O)CCCCCCCCCCNC(=O)Cn3cc(C[C@@H](C)O)nn3)CC2)nc(N2CCN(C(=O)CCCCCCCCCCNC(=O)[C@@H]([C@H](C)CC)n3cc(CCCCCN)nn3)CC2)n1`, the IC50 is 141 µM.

Turning to `Cc1ccc(-c2c[n+](Cc3ccc(Cl)c(Cl)c3)c3n2CCC3)cc1`, the 50% inhibitory concentration (IC50) is 25.8 µM. With `Cc1cc(C)c2c(N)c3ccccc3nc2n1` the figure was 84.7 µM. Then `CNCCCC1Sc2ccccc2Oc2ccccc21` (centres undefined), with 46.4 µM; and `CCCCN(CCCC)C(=O)c1cn(CC)c2cc(N3CCN(C)CC3)c(F)cc2c1=O`, with 15.7 µM. Take `CNC[C@H](CC1CCCCC1)NC[C@H](Cc1ccccc1)NCCC12CC3CC(CC(C3)C1)C2`: the IC50 is 10.4 µM. Then `CC(C)CCC(CCNCc1ccccn1)c1ccc(Cl)cc1` (centres undefined), with 54.7 µM; and `Oc1c(I)cc(Cl)c2cccnc12`, with 5.62 µM.

`Fc1ccc(CCNCc2ccc(Cl)c(Cl)c2)cc1`: the IC50 was 36.6 µM. With `Cc1[nH]cnc1C(=O)N/N=C/c1ccc([N+](=O)[O-])s1` the figure was 37.2 µM; with `O=C(N/N=C/c1c[nH]c2ccccc12)c1ccc(Cl)cc1`, 91.6 µM; with `CCc1cccc2c(C(=O)COC(=O)c3ccc([N+](=O)[O-])s3)c[nH]c12`, 18.7 µM.

With `C/C=C/c1ccc(OCc2cc(=O)n3cc(C)ccc3n2)c(OC)c1`, the concentration for half-maximal inhibition (IC50) was 74.7 µM. With `O=C(CNCCC1=CCCCC1)Nc1ccc(N2CCCCCC2)cc1` the figure was 24.7 µM. With `CC(C)[C@@H]1CC[C@@H](C)C[C@H]1OC(=O)C[n+]1cc(-c2ccc(Cl)cc2)n2c1CCCCC2` the figure was 74.9 µM; with `CCCCn1c(NS(=O)(=O)c2ccccc2)c(S(=O)(=O)c2ccc(C)cc2)c2nc3ccccc3nc21`, 9.39 µM; with `O=C1C(=O)c2ccccc2-c2ccccc21`, 19.4 µM. With `COc1ccc(N2CC(C(=O)N/N=C/c3cc([N+](=O)[O-])ccc3O)CC2=O)cc1` (centres undefined) the figure was 93.2 µM. On to `Cc1ccc(-c2csc(NC(=O)C[n+]3cc(-c4ccc(C)cc4)n4c3CCC4)n2)cc1`, for which the IC50 is 19.3 µM. Then `C[C@H]1COc2c(N3CCN(C)CC3)c(F)cc3c(=O)c(C(=O)O)cn1c23`, with 0.69 µM; and `O=C(c1cccs1)c1no[n+]([O-])c1C(=O)c1cccs1`, with 39.8 µM; and `Cc1ccc2c(c1)c1c(n2CC(O)CN2CCC(C)CC2)CCCC1` (centres undefined), with 82.4 µM. Then `COc1ccc(OCC(O)CNc2ccc(Br)cc2)cc1` (centres undefined), with 3.74 µM. As for `CCCCCc1ccc(OCCC[n+]2ccccc2)c(CCCCC)c1`, the IC50 was 32.9 µM. Then `Cc1ccc(O)c(Nc2c3ccccc3nc3ccccc23)c1`, with 50.2 µM. With `Cc1cc(N2CCC(C)CC2)nc2cccc(O)c12` the figure was 80.2 µM. Regarding `CCCCOc1ccc(CSC(=N)N)cc1Cl`, the half-inhibitory concentration (IC50) was 19.1 µM. Take `CCN1CCN(C(=O)c2cc3cc(F)ccc3[nH]2)CC1`: the IC50 is 18.3 µM. Regarding `O=C(CN1C2=NCCCN2c2ccccc21)c1ccc2c(c1)OCO2`, the IC50 was 126 µM. Then `Clc1ccc(OCCCNCc2ccccc2)c2ccccc12`, with 18.3 µM; and `Cc1ccc(Cn2c(=N)n(CC(O)COc3ccccc3)c3ccccc32)cc1` (centres undefined), with 37.9 µM. Then `c1ccc(N2CCN(c3nc4ccccc4[nH]3)CC2)nc1`, with 138 µM.

On to `O=C(O)c1ccc(N2C(=O)CC(N3C(=O)/C(=C/c4ccc(Cl)cc4)SC3=S)C2=O)cc1` (centres undefined), for which the IC50 is 23.7 µM. As for `O=C(N/N=C\C=C\c1ccc([N+](=O)[O-])o1)c1cccs1`, the concentration for half-maximal inhibition (IC50) is 11 µM. For `O=C(Cc1ccc([N+](=O)[O-])cc1)N/N=C/c1ccc([N+](=O)[O-])o1`, the IC50 is 20.9 µM. Then `Cc1cc(Br)ccc1OCCCCNCCO`, with 30.7 µM; and `COc1ccc(C(C[N+](=O)[O-])C2(c3ccc(OC)c(OC)c3)C(=O)c3ccccc3C2=O)cc1` (centres undefined), with 18.2 µM; and `CC1(CC(=O)N/N=C/c2cc([N+](=O)[O-])c(O)cc2O)OCCO1`, with 74 µM. With `O=C(N/N=C/c1ccc([N+](=O)[O-])o1)C1CCCC1` the figure was 37 µM. Then `O=C(CCN1Cc2ccccc2C1)c1ccc2c(c1)OCCO2`, with 137 µM; and `CCCCCC(=O)NNC(=S)NC(C)=O`, with 29.1 µM. As for `Cc1ccc2nc(N(CCCN(C)C)C(=O)c3ccc4c(c3)CCCC4)sc2c1`, the IC50 was 31.8 µM. As to `O=C(Cn1nc(CNc2ccc(Br)cc2)[n+]2c1CCCCC2)c1ccc([N+](=O)[O-])cc1`, the IC50 was 35 µM.

On to `CC12CN3CC(C)(CN(C1)C3c1ccc(Br)cc1O)C2` (centres undefined), for which the IC50 was 143 µM. With `C#CCOCCOCCOCCNc1nc(N2CCN(C(=O)CCCCCCCCCCNC(=O)[C@H](CCCCN)n3cc(C)nn3)CC2)nc(N2CCN(C(=O)CCCCCCCCCCNC(=O)[C@@H]([C@H](C)CC)n3cc(CCCCCN)nn3)CC2)n1`, the IC50 is 20.4 µM. With `CCC(O)(CC)C(=O)N/N=C/c1cc(Br)cc(Br)c1O` the figure was 70.2 µM; with `CCC[C@H](CN[C@@H](CNC)[C@H](C)CC)NCCc1cc(C(F)(F)F)cc(C(F)(F)F)c1`, 25.1 µM; with `Cc1ccc(C(=O)N/C(=C\c2ccc(-c3ccc(Br)cc3)o2)C(=O)NCCCN(C)C)cc1`, 37.4 µM. Then `Clc1ccc2[nH]c3c(c2c1)CCc1cn[nH]c1-3`, with 105 µM; and `O=C(NNc1nc2ccc(F)cc2s1)c1cccc(F)c1`, with 46.8 µM. As to `Cc1cc(NC2CCCCC2)nc(NCc2ccccc2)n1`, the IC50 is 36.1 µM.

Turning to `CCn1cc(C(=O)NCCO)c(=O)c2cc(F)c(N3CCN(C)CC3)cc21`, the IC50 was 27.7 µM. With `O=C(CC(=O)c1ccccc1O)c1cccc(F)c1` the figure was 28.9 µM; with `O=Nc1c(O)c2ccccc2c2ccccc12`, 37.7 µM; with `N/C(=N\OS(=O)(=O)c1ccc(Cl)cc1)c1cccnc1`, 12.4 µM. Then `CN(C)CCCNc1cc(C(C)(C)C)nc2c(-c3ccccc3)cnn12`, with 31.5 µM.

`CC1=NN(c2nc3ccccc3[nH]2)C(=O)C1Cc1ccccc1` (centres undefined): the IC50 was 34.2 µM.

For the molecule `Nc1nc(Nc2ccccc2)nc2ccccc12`, the IC50 was 42.4 µM. With `CN(C)CCCN1c2ccccc2Sc2ccc(Cl)cc21` the figure was 34.3 µM and 31.8 µM; with `N/C(=N\OS(=O)(=O)c1ccccc1)c1cccnc1`, 12.4 µM; with `CCCCCC(=O)NC(=S)NNC(=O)CC`, 68.8 µM. Then `O=C(Nc1cccc(NC(=O)c2ccccc2Cl)c1)c1ccc([N+](=O)[O-])o1`, with 100 µM. With `COc1ccc(CNCC(O)COc2ccc(C(C)(C)c3ccccc3)cc2)cc1` (centres undefined) the figure was 20.4 µM. As for `CN(C)CC/C=C1\c2ccccc2Sc2cc(F)c(Cl)cc21`, the IC50 is 34.8 µM. With `C#CCOCCOCCOCCNc1nc(N2CCN(C(=O)[C@H](Cc3cc4ccccc4[nH]3)n3cc([C@@H](N)C(C)CC)nn3)CC2)nc(N2CCN(C(=O)[C@H](Cc3cc4ccccc4[nH]3)n3cc([C@@H](N)Cc4ccc(O)cc4)nn3)CC2)n1` (some centres undefined), the IC50 is 18.5 µM. Then `Clc1c(OCCCn2ccnc2)ccc2ccccc12`, with 76.6 µM; and `O=C1NCCN1c1ncc([N+](=O)[O-])s1`, with 28.2 µM; and `S=C(NCc1ccc(Cl)cc1)Nc1ccncc1`, with 35 µM. As for `CN1CCN(C2Cc3ccc(Cl)cc3Sc3ccc(F)cc32)CC1` (centres undefined), the 50% inhibitory concentration (IC50) is 19.9 µM. In the case of `Cc1cccc(Nc2cc(C)c3c(O)cccc3n2)c1C`, the IC50 was 34 µM. Then `CN(C)c1nnnn1-c1ccc(Oc2ccccc2)cc1`, with 0.27 µM; and `Cc1cc(N=Nc2ccccc2)c(NCC(O)C(O)C(O)CO)cc1C` (centres undefined), with 144 µM; and `Fc1ccccc1CCNCc1ccccc1`, with 34.4 µM.

For `COc1ccc(/C=C/C(=O)NC(=S)NNC(=O)c2cnccn2)cc1`, the IC50 was 30.6 µM. On to `Oc1ccc(N=Nc2ccc(Br)cc2)c(O)c1`, for which the IC50 is 100 µM. Turning to `C[C@H]1O[C@@H](n2cc(F)c(=O)[nH]c2=O)[C@H](O)[C@@H]1O`, the IC50 was 63.7 µM. Then `CCCN1CCC(NCc2cn(C)nc2-c2ccc(Oc3ccccc3)cc2)CC1`, with 85.4 µM; and `CCOc1cc(CNC(C)(C)CO)cc(Br)c1OCc1ccc(Cl)cc1Cl`, with 37.3 µM; and `O=C(NC(=S)NNC(=O)c1cccs1)c1ccco1`, with 52.3 µM.

In the case of `N=c1c2c(n(Cc3ccc(Cl)cc3)c3c1CCC3)CCC2`, the IC50 is 79.7 µM. With `O=C(N=Nc1c(O)[nH]c2ccccc12)c1cc(-c2cccs2)[nH]n1` the figure was 81.4 µM; with `Fc1ccc(Nc2nnc(C(F)(F)F)s2)cc1Cl`, 37.8 µM; with `CCOC(=O)c1c(-c2ccc(-c3ccccc3)cc2)csc1NC(=O)CNCCN(C)C`, 82.7 µM. `O=C(CC1NCCc2ccccc21)Nc1ccc(Oc2ccccc2)cc1` (centres undefined): the IC50 is 51 µM. With `C[N+]12CN3CN(CN(C3)C1)C2` the figure was 69.8 µM; with `Cc1nc(N)nc(N)c1CCCc1ccc(Cl)c(Cl)c1`, 31.5 µM. Then `CCOC(=O)c1c(N)sc(C(=O)Nc2ccc3c(c2)OCO3)c1C`, with 132 µM.

On to `Nc1nc2ccccc2n1CCOc1ccccc1Cl`, for which the IC50 is 40.7 µM. Take `Cc1ccc(CNCCC2=CCCCC2)cc1`: the half-inhibitory concentration (IC50) was 70.7 µM. As to `COc1c(N2CCN(C(=S)Nc3ccccc3F)C(C)C2)c(F)cc2c(=O)c(C(=O)O)cn(C3CC3)c12` (centres undefined), the IC50 was 9.45 µM. Then `CCc1ccc(NC(=O)C[n+]2cc(-c3ccc(C)cc3)n3c2CCC3)cc1`, with 37.2 µM; and `CCCCCCCCCC[N+](C)(C)CC/C=C1/c2ccccc2Sc2ccc(Cl)cc21`, with 14 µM; and `Cc1cc(C)c(OCCCCNCc2ccccc2)c(Cl)c1`, with 61.3 µM. With `C#CCOCCOCCOCCNc1nc(N2CCN(C(=O)CCCCCCCCCCNC(=O)[C@H](CCCCN)n3cc(C)nn3)CC2)nc(N2CCN(C(=O)CCCCCCCCCCNC(=O)[C@H](CO)n3cc(CCCSC)nn3)CC2)n1` the figure was 130 µM; with `CCCCn1c(=N)n(CC(=O)c2ccc(Br)s2)c2ccccc21`, 45.1 µM.
